Test results from PubChem BioAssay (NCI).
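Where inhibition never reached the appropriate level, the endpoint shown equals the highest concentration tested. Otherwise, values were interpolated linearly from a five-concentration, 48-hour dose response in 96-well plates. GI50 marks 50% less growth. TGI denotes the concentration required for complete inhibition of growth.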

How the values were obtained:
Experiment in all cases: growth of human tumour cells (NCI), 48 h
786-0 renal = test system: 786-0 renal
A498 renal = test system: A498 renal
A549 NSCLC = test system: A549 NSCLC
ACHN renal = test system: ACHN renal
BT-549 breast = test system: BT-549 breast
CAKI-1 renal = test system: CAKI-1 renal
CCRF-CEM leukemia = test system: CCRF-CEM leukemia
COLO 205 colon = test system: COLO 205 colon
DU-145 prostate = test system: DU-145 prostate
EKVX NSCLC = test system: EKVX NSCLC
HCC-2998 colon = test system: HCC-2998 colon
HCT-15 colon = test system: HCT-15 colon
HL-60(TB) leukemia = test system: HL-60(TB) leukemia
HOP-62 NSCLC = test system: HOP-62 NSCLC
HOP-92 NSCLC = test system: HOP-92 NSCLC
HS 578T breast = test system: HS 578T breast
HT29 colon = test system: HT29 colon
IGROV1 ovarian = test system: IGROV1 ovarian
K-562 leukemia = test system: K-562 leukemia
M14 melanoma = test system: M14 melanoma
MALME-3M melanoma = test system: MALME-3M melanoma
MCF7 breast = test system: MCF7 breast
MDA-MB-231 breast = test system: MDA-MB-231 breast
MOLT-4 leukemia = test system: MOLT-4 leukemia
NCI-H226 lung = test system: NCI-H226 lung
NCI-H460 lung = test system: NCI-H460 lung
NCI/ADR-RES ovarian = test system: NCI/ADR-RES ovarian
OVCAR-3 ovarian = test system: OVCAR-3 ovarian
OVCAR-4 ovarian = test system: OVCAR-4 ovarian
OVCAR-5 ovarian = test system: OVCAR-5 ovarian
PC-3 prostate = test system: PC-3 prostate
RPMI-8226 leukemia = test system: RPMI-8226 leukemia
RXF 393 renal = test system: RXF 393 renal
SF-268 CNS = test system: SF-268 CNS
SF-295 CNS = test system: SF-295 CNS
SF-539 CNS = test system: SF-539 CNS
SK-MEL-2 melanoma = test system: SK-MEL-2 melanoma
SK-MEL-28 melanoma = test system: SK-MEL-28 melanoma
SK-MEL-5 melanoma = test system: SK-MEL-5 melanoma
SK-OV-3 ovarian = test system: SK-OV-3 ovarian
SN12C renal = test system: SN12C renal
SNB-19 CNS = test system: SNB-19 CNS
SNB-75 CNS = test system: SNB-75 CNS
SR leukemia = test system: SR leukemia
SW-620 colon = test system: SW-620 colon
T-47D breast = test system: T-47D breast
TK-10 renal = test system: TK-10 renal
U251 CNS = test system: U251 CNS
UACC-257 melanoma = test system: UACC-257 melanoma
UACC-62 melanoma = test system: UACC-62 melanoma
UO-31 renal = test system: UO-31 renal

Which results are given for COc1ccc2[nH]cc(-c3csc4nc(-c5ccccc5)cn34)c2c1?
GI50 (786-0 renal): 599 nM; TGI (786-0 renal): > 19900 nM; GI50 (A498 renal): 3730 nM; GI50 (A549 NSCLC): 891 nM; TGI (A549 NSCLC): > 88400 nM; GI50 (ACHN renal): 612 nM; TGI (ACHN renal): 20600 nM; GI50 (BT-549 breast): 508 nM; TGI (BT-549 breast): 4800 nM; GI50 (CAKI-1 renal): 404 nM; TGI (CAKI-1 renal): 12100 nM; GI50 (CCRF-CEM leukemia): 248 nM; TGI (CCRF-CEM leukemia): > 100000 nM; GI50 (COLO 205 colon): 334 nM; TGI (COLO 205 colon): 1150 nM; GI50 (DU-145 prostate): 576 nM; TGI (DU-145 prostate): > 100000 nM; GI50 (EKVX NSCLC): 804 nM; TGI (EKVX NSCLC): > 100000 nM; GI50 (HCC-2998 colon): 602 nM; TGI (HCC-2998 colon): 3750 nM; GI50 (HCT-15 colon): 242 nM; TGI (HCT-15 colon): > 23100 nM; GI50 (HL-60(TB) leukemia): 287 nM; TGI (HL-60(TB) leukemia): > 100000 nM; GI50 (HOP-62 NSCLC): 579 nM; TGI (HOP-62 NSCLC): 19100 nM; GI50 (HOP-92 NSCLC): 424 nM; TGI (HOP-92 NSCLC): 5300 nM; GI50 (HS 578T breast): 328 nM; TGI (HS 578T breast): 10300 nM; GI50 (HT29 colon): 324 nM; TGI (HT29 colon): 1120 nM; GI50 (IGROV1 ovarian): 477 nM; TGI (IGROV1 ovarian): > 100000 nM; GI50 (K-562 leukemia): 139 nM; TGI (K-562 leukemia): > 100000 nM; GI50 (M14 melanoma): 295 nM; TGI (M14 melanoma): > 100000 nM; GI50 (MALME-3M melanoma): 492 nM; TGI (MALME-3M melanoma): 31800 nM; GI50 (MCF7 breast): 276 nM; TGI (MCF7 breast): > 100000 nM; GI50 (MDA-MB-231 breast): 524 nM; TGI (MDA-MB-231 breast): > 100000 nM; GI50 (MOLT-4 leukemia): 440 nM; TGI (MOLT-4 leukemia): > 51900 nM; GI50 (NCI-H226 lung): 947 nM; TGI (NCI-H226 lung): 5760 nM; GI50 (NCI-H460 lung): 374 nM; TGI (NCI-H460 lung): 2530 nM; GI50 (NCI/ADR-RES ovarian): 252 nM; TGI (NCI/ADR-RES ovarian): 1320 nM; GI50 (OVCAR-3 ovarian): 355 nM; TGI (OVCAR-3 ovarian): 3320 nM; GI50 (OVCAR-4 ovarian): 2220 nM; TGI (OVCAR-4 ovarian): > 100000 nM; GI50 (OVCAR-5 ovarian): 709 nM; TGI (OVCAR-5 ovarian): > 100000 nM; GI50 (PC-3 prostate): 412 nM; TGI (PC-3 prostate): > 100000 nM; GI50 (RPMI-8226 leukemia): 416 nM; TGI (RPMI-8226 leukemia): 3860 nM; GI50 (RXF 393 renal): 553 nM; TGI (RXF 393 renal): 4770 nM; GI50 (SF-268 CNS): 823 nM; TGI (SF-268 CNS): > 80800 nM; GI50 (SF-295 CNS): 395 nM; TGI (SF-295 CNS): 4240 nM; GI50 (SF-539 CNS): 359 nM; TGI (SF-539 CNS): 1830 nM; GI50 (SK-MEL-2 melanoma): 291 nM; TGI (SK-MEL-2 melanoma): 851 nM; GI50 (SK-MEL-28 melanoma): 724 nM; TGI (SK-MEL-28 melanoma): > 90200 nM; GI50 (SK-MEL-5 melanoma): 407 nM; TGI (SK-MEL-5 melanoma): 3640 nM; GI50 (SK-OV-3 ovarian): 489 nM; TGI (SK-OV-3 ovarian): > 43900 nM; GI50 (SN12C renal): 470 nM; TGI (SN12C renal): > 100000 nM; GI50 (SNB-19 CNS): 616 nM; TGI (SNB-19 CNS): > 100000 nM; GI50 (SNB-75 CNS): 240 nM; TGI (SNB-75 CNS): 779 nM; GI50 (SR leukemia): 66 nM; TGI (SR leukemia): > 100000 nM; GI50 (SW-620 colon): 360 nM; TGI (SW-620 colon): > 100000 nM; GI50 (T-47D breast): 382 nM; TGI (T-47D breast): > 100000 nM; GI50 (TK-10 renal): 6970 nM; TGI (TK-10 renal): 42600 nM; GI50 (U251 CNS): 401 nM; GI50 (UACC-257 melanoma): 525 nM; TGI (UACC-257 melanoma): > 100000 nM; GI50 (UACC-62 melanoma): 327 nM; TGI (UACC-62 melanoma): 20800 nM; GI50 (UO-31 renal): 465 nM; TGI (UO-31 renal): 32000 nM
